In PubChem BioAssay (NCI):
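Test compounds were applied to cells in 96-well plates for 48 hours at 5 doses. The concentration for full growth arrest is given as TGI.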

Experiments:
Experiment in all cases: NCI-60 cell line screen, 48 h
[1] = tested on: OVCAR-8 ovarian
[2] = tested on: SW-620 colon
[3] = tested on: K-562 leukemia
[4] = tested on: COLO 205 colon
[5] = tested on: MOLT-4 leukemia
[6] = tested on: SN12C renal
[7] = tested on: SNB-75 CNS
[8] = tested on: LXFL 529 NSCLC
[9] = tested on: OVCAR-4 ovarian
[10] = tested on: NCI-H460 lung
[11] = tested on: M14 melanoma
[12] = tested on: XF 498 CNS
[13] = tested on: A549 NSCLC
[14] = tested on: IGROV1 ovarian
[15] = tested on: HOP-18 NSCLC
[16] = tested on: RXF 393 renal
[17] = tested on: U251 CNS
[18] = tested on: SK-OV-3 ovarian
[19] = tested on: HCC-2998 colon
[20] = tested on: KM12 colon
[21] = tested on: TK-10 renal
[22] = tested on: DMS 114 small cell lung
[23] = tested on: KM20L2 colon
[24] = tested on: HCT-116 colon
[25] = tested on: MALME-3M melanoma
[26] = tested on: NCI-H522 lung
[27] = tested on: DMS 273 small cell lung
[28] = tested on: ACHN renal
[29] = tested on: OVCAR-3 ovarian
[30] = tested on: SK-MEL-5 melanoma
[31] = tested on: HT29 colon
[32] = tested on: HCT-15 colon
[33] = tested on: LOX IMVI melanoma
[34] = tested on: NCI-H226 lung
[35] = tested on: UACC-257 melanoma
[36] = tested on: 786-0 renal
[37] = tested on: UO-31 renal
[38] = tested on: A498 renal
[39] = tested on: OVCAR-5 ovarian
[40] = tested on: SF-295 CNS
[41] = tested on: EKVX NSCLC
[42] = tested on: SF-539 CNS
[43] = tested on: SF-268 CNS
[44] = tested on: UACC-62 melanoma
[45] = tested on: RPMI-8226 leukemia
[46] = tested on: RXF-631 renal
[47] = tested on: SNB-78 CNS
[48] = tested on: CAKI-1 renal
[49] = tested on: SK-MEL-2 melanoma
[50] = tested on: HOP-62 NSCLC
[51] = tested on: NCI-H23 lung
[52] = tested on: CCRF-CEM leukemia
[53] = tested on: M19-MEL melanoma
[54] = tested on: SK-MEL-28 melanoma
[55] = tested on: SNB-19 CNS
[56] = tested on: SR leukemia
[57] = tested on: HOP-92 NSCLC
[58] = tested on: HL-60(TB) leukemia
[59] = tested on: DLD-1 colon

SMILES: Cn1c(=O)nc2n(-c3cccc(Cl)c3)c3ccccc3nc-2c1=O
- TGI [1]: 78.1 µM
- TGI [2]: 25 µM
- TGI [3]: 38.2 µM
- TGI [4]: 16 µM
- TGI [5]: 42 µM
- TGI [6]: 28.5 µM
- TGI [7]: 51.8 µM
- TGI [8]: 72.8 µM
- TGI [9]: 24.6 µM
- TGI [10]: 26.2 µM
- TGI [11]: 24 µM
- TGI [12]: 35.3 µM
- TGI [13]: 33 µM
- TGI [14]: 54 µM
- TGI [15]: 85.5 µM
- TGI [16]: 83.3 µM
- TGI [17]: 37.7 µM
- TGI [18]: > 100 µM
- TGI [19]: 25.6 µM
- TGI [20]: 44.9 µM
- TGI [21]: 73.6 µM
- TGI [22]: 20 µM
- TGI [23]: 23.8 µM
- TGI [24]: 30.8 µM
- TGI [25]: 12.3 µM
- TGI [26]: 30.7 µM
- TGI [27]: 25.1 µM
- TGI [28]: 29.8 µM
- TGI [29]: 6.61 µM
- TGI [30]: 25.2 µM
- TGI [31]: 21.4 µM
- TGI [32]: 30.2 µM
- TGI [33]: 59.8 µM
- TGI [34]: 74.9 µM
- TGI [35]: 23.8 µM
- TGI [36]: > 100 µM
- TGI [37]: > 100 µM
- TGI [38]: 79.3 µM
- TGI [39]: 40.8 µM
- TGI [40]: 62.1 µM
- TGI [41]: 26.9 µM
- TGI [42]: 33 µM
- TGI [43]: > 100 µM
- TGI [44]: 6.36 µM
- TGI [45]: 51 µM
- TGI [46]: 40.8 µM
- TGI [47]: 57.7 µM
- TGI [48]: 70 µM
- TGI [49]: 40.7 µM
- TGI [50]: 90.9 µM
- TGI [51]: 21.9 µM
- TGI [52]: 50.5 µM

SMILES: C[C@]12CCC(=O)C[C@H]1CCC(O)[C@@H]2Br (stereo partly drawn)
- TGI [1]: > 100 µM
- TGI [2]: > 100 µM
- TGI [3]: > 100 µM
- TGI [4]: > 100 µM
- TGI [5]: > 100 µM
- TGI [6]: > 100 µM
- TGI [7]: > 100 µM
- TGI [8]: > 100 µM
- TGI [9]: > 100 µM
- TGI [10]: > 100 µM
- TGI [11]: > 100 µM
- TGI [12]: > 100 µM
- TGI [13]: > 100 µM
- TGI [14]: > 100 µM
- TGI [15]: > 100 µM
- TGI [53]: > 100 µM
- TGI [17]: > 100 µM
- TGI [18]: > 100 µM
- TGI [19]: > 100 µM
- TGI [20]: > 100 µM
- TGI [21]: > 100 µM
- TGI [22]: > 100 µM
- TGI [54]: > 100 µM
- TGI [23]: > 100 µM
- TGI [24]: > 100 µM
- TGI [55]: > 100 µM
- TGI [25]: > 100 µM
- TGI [26]: > 100 µM
- TGI [27]: > 100 µM
- TGI [28]: > 100 µM
- TGI [29]: > 100 µM
- TGI [30]: > 100 µM
- TGI [31]: > 100 µM
- TGI [32]: > 100 µM
- TGI [33]: > 100 µM
- TGI [34]: > 100 µM
- TGI [56]: > 100 µM
- TGI [35]: > 100 µM
- TGI [57]: > 100 µM
- TGI [36]: > 100 µM
- TGI [58]: > 100 µM
- TGI [37]: > 100 µM
- TGI [38]: > 100 µM
- TGI [39]: > 100 µM
- TGI [40]: > 100 µM
- TGI [42]: > 100 µM
- TGI [43]: > 100 µM
- TGI [44]: > 100 µM
- TGI [45]: > 100 µM
- TGI [46]: > 100 µM
- TGI [59]: > 100 µM
- TGI [48]: > 100 µM
- TGI [49]: > 100 µM
- TGI [50]: > 100 µM
- TGI [51]: > 100 µM
- TGI [52]: > 100 µM
